Like-named read-outs stand apart in the source and are kept apart here.
Columns and labels:
in vivo = details: mouse, po
Procedure: Column C provides data relating to acute toxicity (LD50; mice, peroral administration).
2. Determination of the toxicity-
Various doses of the substances (volume: 10 ml/kg) are administered orally by means of a stomach tube. The observation time is 7 days.

[1] = test system: blood glucose concentration; assay: Determination of glucose in the blood after a single oral administration (fasting, metabolically healthy rats); type: in vivo, rat (young male Sprague-Dawley); details: Rattus norvegicus
Procedure: Table I reflects investigations of the effect of representative compounds according to the invention on the blood glucose concentration of fasting, metabolically healthy rats which are observed for 6 hours after a single oral administration of from 0.01 to 0.6 mmol of substance/kg of body weight.
1. Determination of glucose in the blood after a single oral administration-
Young male Sprague-Dawley rats (body weight: 150 to 200 g) are used. The animals are kept in Makrolon cages with up to 4 animals per cage (ambient temperature: 23° C., relative atmospheric humidity: 55%, fixed day/night rhythm [12/12 hours], standard diet: Altromin®). The rats are deprived of the feed 18 hours before the first sample of blood is taken. Water is available ad libitum. Samples of blood are taken from the postorbital plexus by puncture immediately before and 3 and 6 hours after administration of the substance.
After deproteinization with perchloric acid, the glucose in the blood is determined by means of the enzymatic HK/G-6-PDH method of R. Richterich [Klinische Chemie, Theorie und Praxis, (Clinical Chemistry, Theory and Practice), 3rd edition, 1971, S. Karger Verlag, Zurich-Basle, page 275]. A control group (treated with pure solvent) is also investigated in each case for comparison.

[2] = rats p.o., single dose, fasting, observed for 6 hours, with reference to control group, read-out: ED50 (15%): dose which effects a lowering of the blood glucose concentration by at least 15% in 50% of the animals
[3] = rats p.o., single dose, fasting, observed for 6 hours, with reference to control group, read-out: ED50 (25%): dose which effects a lowering of the blood glucose concentration by at least 25% in 50% of the animals

| SMILES | LD50 at 168 h (in vivo) [mg/kg] | ED50 [1, 2] [mg/kg] | ED50 [1, 3] [mg/kg] | ED50 ([1]; 6 h, read-out: ED50 (15%): dose which effects a lowering of the blood glucose concentration by at least 15% in 50% of the animals) [mg/kg] | ED50 ([1]; 6 h, read-out: ED50 (25%): dose which effects a lowering of the blood glucose concentration by at least 25% in 50% of the animals) [mg/kg] |
| --- | --- | --- | --- | --- | --- |
| CCOC(=O)C1(CCCCCOc2ccc(Cl)cc2)CO1 (stereo not drawn) [Serial No. 6, 2-[5-(4-Chlorophenoxy)pentyl]oxirane-2-carboxylic acid ethyl ester] | 310 | 5 | 6 |  |  |
| [H]/N=C(/N)N/C(=N/[H])NCCc1ccccc1 [Serial No. 2, Phenformin, reference compound] |  | > 150 | > 343 |  |  |
| CCOC(=O)C1(CCCCCCOc2ccc(Cl)cc2)CO1 (stereo not drawn) [Serial No. 5, 2-[6-(4-Chlorophenoxy)hexyl]oxirane-2-carboxylic acid ethyl ester] | 300 | < 7 | 7 |  |  |
| CCOC(=O)C1(CCCCOc2cccc(C(F)(F)F)c2)CO1 (stereo not drawn) [Serial No. 4, 2-[4-(3-Trifluoromethylphenoxy)butyl]oxirane-2-carboxylic acid ethyl ester] | 460 | ~7 | 13 |  |  |
| CCOC(=O)C1(CCCCOc2cccc(Cl)c2)CO1 (stereo not drawn) [Serial No. 3, 2-[4-(3-Chlorophenoxy)butyl]oxirane-2-carboxylic acid ethyl ester] | 390 | 3 | 24 |  |  |
| CCCCNC(=N)NC(=N)N [Serial No. 1, Buformin, reference compound] |  |  |  | > 100 | 194 |
| CCOC(=O)C1(CCCCOc2ccc(C)cc2)CO1 (stereo not drawn) [Serial No. 7, 2-[4-(4-Methylphenoxy)butyl]oxirane-2-carboxylic acid ethyl ester] |  | 8 | 19 |  |  |

Reference: patent publication US4337267A, “Phenalkoxyalkyl- and phenoxyalkyl-substituted oxiranecarboxylic acids, their use and medicaments containing them” (Byk Gulden Lomberg Chemische Fabrik GmbH, priority 1980, dated 1982)
